Test results as given in publication PMC11267548 (JACS Au, 2024).

Biological target: T1, ScGPUT (Solitalea canadensis, UniProt H8KMA8)
T1 sequence (H8KMA8 1-293): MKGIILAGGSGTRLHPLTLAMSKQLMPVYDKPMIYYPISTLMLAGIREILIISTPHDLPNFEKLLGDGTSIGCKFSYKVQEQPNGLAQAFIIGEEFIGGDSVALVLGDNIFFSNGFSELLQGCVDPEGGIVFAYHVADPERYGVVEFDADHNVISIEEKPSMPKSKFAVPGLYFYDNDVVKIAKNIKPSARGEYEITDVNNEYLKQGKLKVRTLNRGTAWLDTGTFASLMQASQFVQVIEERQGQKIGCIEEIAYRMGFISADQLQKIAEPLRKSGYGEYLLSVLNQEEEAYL
Assay: conversion of xylose-1-phosphate to UDP-xylose, TLC
Type: biochemical
Settings: read-out: % inhibition at 10 mM

Row | Compound | inhibition at 10000 µM [%]
1 | Nc1ncnc2c1ncn2[C@@H]1O[C@H](COP(=O)(O)OP(=O)(O)O)[C@@H](O)[C@H]1O [ADP] | > 50
2 | Nc1ncnc2c1ncn2[C@@H]1O[C@H](COP(=O)(O)OP(=O)(O)OP(=O)(O)O)[C@@H](O)[C@H]1O [ATP] | > 50
